From BindingDB's records for doi:10.1016/s0960-894x(01)00577-7 (University of Toledo, 2001)

Assay: Inhibitory concentration against polymerization in A17 double mutant HIV-1 RT using a template primer of poly rC/dG12-18 and [3H]dGTP

| SMILES | IC50 [µM] |
| --- | --- |
| O=C(OC1COc2ccccc2C1)c1ccc(O)c(O)c1O (stereo not drawn) [2,3,4-Trihydroxy-benzoic acid chroman-3-yl ester] | > 100 |
| O=C(OC1COc2cc(O)cc(O)c2C1)c1cccc(O)c1O (stereo not drawn) [2,3-Dihydroxy-benzoic acid 5,7-dihydroxy-chroman-3-yl ester] | > 100 |
| O=C(OC1COc2cc(O)ccc2C1)c1ccc(O)c(O)c1O (stereo not drawn) [2,3,4-Trihydroxy-benzoic acid 7-hydroxy-chroman-3-yl ester] | 30.8 |
